From DBAASP
In brackets after ≈: the same amount, converted by molar mass. Several values for one entry are separate records, joined by “and”; a condition that tells them apart may be missing. Identical values can stand only once. Blank lines part the entries; values can stand above or below the compound they belong to.

Tests used:
Assay in all cases: ≥ marks a high value that may be exact or a test limit, other limits are often not marked, values filed in µg/mL are converted to µM
[1] = test system: Acinetobacter baumannii KCTC 2508
[2] = test system: Bacillus subtilis KCTC 2217
[3] = test system: Staphylococcus aureus ATCC 25923
[4] = test system: Bacillus subtilis ATCC 11060
[5] = test system: Enterococcus faecalis ATCC 29212
Escherichia coli 078 = test system: Escherichia coli 078
[6] = test system: Escherichia coli CMCC 44102
[7] = test system: Escherichia coli CVCC 1515
Escherichia coli ER2566 = test system: Escherichia coli ER2566
Escherichia coli K88 = test system: Escherichia coli K88
Escherichia coli UB1005 = test system: Escherichia coli UB1005
[8] = test system: Pseudomonas aeruginosa ATCC 10419
[9] = test system: Pseudomonas aeruginosa ATCC 21625
[10] = test system: Pseudomonas aeruginosa ATCC 21630
[11] = test system: Pseudomonas aeruginosa ATCC 27853
[12] = test system: Salmonella enterica subsp. enterica serovar Pullorum C79-13
[13] = test system: Salmonella enterica subsp. enterica serovar Typhimurium ATCC 14028
[14] = test system: Salmonella enterica subsp. enterica serovar Typhimurium C77-31
[15] = test system: Staphylococcus aureus ATCC 29213
[16] = test system: Staphylococcus epidermidis ATCC 12228
[17] = test system: Bacillus amyloliquefaciens ATCC 23842
[18] = test system: Bacillus cereus ATCC 14579
[19] = test system: Bacillus licheniformis ATCC 14580
[20] = test system: Bacillus subtilis ATCC 6051
[21] = test system: Enterococcus faecalis 1F-1
Enterococcus faecalis A4 = test system: Enterococcus faecalis A4
[22] = test system: Enterococcus faecium 4W-9
[23] = test system: Enterococcus faecium 5F-10
[24] = test system: Escherichia coli ATCC 25922
[25] = test system: Proteus mirabilis ATCC 35659
[26] = test system: Pseudomonas aeruginosa PAO1
[27] = test system: Salmonella enterica ATCC H9812
[28] = test system: Staphylococcus aureus 215
Staphylococcus aureus MR = test system: Staphylococcus aureus MR

MIC [1]: 12.5 µM (≈ 22 µg/mL) | MIC [2]: 3.13 µM (≈ 5.52 µg/mL) | MIC [3]: 1.56 µM and > 0.78 µM
SMILES: CC(C)C[C@H](NC(=O)[C@H](CCCCN)NC(=O)[C@H](CCCCN)NC(=O)[C@H](CC(C)C)NC(=O)[C@H](CC(C)C)NC(=O)[C@@H]1CCCN1C(=O)[C@H](CCCCN)NC(=O)[C@H](CCCCN)NC(=O)[C@H](CC(C)C)NC(=O)[C@H](CC(C)C)NC(=O)[C@H](CCCCN)NC(=O)[C@H](CCCCN)NC(=O)[C@H](Cc1c[nH]c2ccccc12)NC(=O)[C@@H](N)CCCCN)C(N)=O [KWKKLLKKPLLKKL]

MIC [4]: 0.987 µM (≈ 3.3 µg/mL) | MIC [5]: 0.987 µM (≈ 3.3 µg/mL) | MIC (Escherichia coli 078): 4.01 µM (≈ 13.4 µg/mL) | MIC [6]: 2 µM (≈ 6.7 µg/mL) | MIC [7]: 0.509 µM (≈ 1.7 µg/mL) | MIC (Escherichia coli ER2566): 0.987 µM (≈ 3.3 µg/mL) | MIC (Escherichia coli K88): 0.509 µM (≈ 1.7 µg/mL) | MIC (Escherichia coli UB1005): 0.987 µM (≈ 3.3 µg/mL) | MIC [8]: 2 µM (≈ 6.7 µg/mL) | MIC [9]: 2 µM (≈ 6.7 µg/mL) | MIC [10]: 4.01 µM (≈ 13.4 µg/mL) | MIC [11]: 4.01 µM (≈ 13.4 µg/mL) | MIC [12]: 4.01 µM (≈ 13.4 µg/mL) | MIC [13]: 4.01 µM (≈ 13.4 µg/mL) | MIC [14]: 2 µM (≈ 6.7 µg/mL) | MIC [3]: 7.99 µM (≈ 26.7 µg/mL) | MIC [15]: 2 µM (≈ 6.7 µg/mL) | MIC [16]: 4.01 µM (≈ 13.4 µg/mL)
SMILES: CC[C@H](C)[C@H](NC(=O)[C@H](CCCCN)NC(=O)[C@H](CCCCN)NC(=O)[C@H](CC(C)C)NC(=O)[C@H](CCCN=C(N)N)NC(=O)[C@H](Cc1c[nH]c2ccccc12)NC(=O)[C@H](CCCN=C(N)N)NC(=O)[C@@H](NC(=O)[C@H](CCCCN)NC(=O)[C@H](Cc1c[nH]c2ccccc12)NC(=O)[C@H](CCCN=C(N)N)NC(=O)[C@H](CC(C)C)NC(=O)[C@H](CCCN=C(N)N)NC(=O)[C@H](CCCN=C(N)N)NC(=O)[C@H](Cc1ccccc1)NC(=O)[C@@H](N)CCCN=C(N)N)[C@@H](C)O)C(=O)N[C@@H](Cc1c[nH]c2ccccc12)C(=O)N[C@@H](Cc1c[nH]c2ccccc12)C(=O)N1CCC[C@H]1C(=O)N[C@@H](Cc1ccccc1)C(=O)N[C@@H](CC(C)C)C(=O)N[C@@H](CCCN=C(N)N)C(=O)N[C@@H](CCCN=C(N)N)C(N)=O [RFRRLRWKTRWRLKKIWWPFLRR]

MIC [17]: ≥ 159 µM | MIC [18]: ≥ 159 µM | MIC [19]: ≥ 159 µM | MIC [20]: ≥ 159 µM | MIC [21]: ≥ 159 µM | MIC (Enterococcus faecalis A4): ≥ 159 µM | MIC [22]: ≥ 159 µM | MIC [23]: ≥ 159 µM | MIC [24]: 79.7 µM (≈ 64 µg/mL) | MIC [25]: ≥ 79.7 µM | MIC [26]: > 159 µM | MIC [27]: ≥ 159 µM | MIC [28]: ≥ 79.7 µM | MIC [15]: 79.7 µM (≈ 64 µg/mL) | MIC (Staphylococcus aureus MR): ≥ 79.7 µM
SMILES: CC(C)C[C@H](NC(=O)[C@H](CC(C)C)NC(=O)[C@@H](N)CCC(=O)O)C(=O)N[C@@H](CO)C(=O)N[C@@H](CCCCN)C(=O)N[C@H](C(=O)N[C@@H](CC(=O)O)C(=O)O)C(C)C [ELLSKVD]
